Columns and labels:
PLK1 [1] = molecular target: T1, PLK1 (Homo sapiens, UniProt P53350); experiment: Cellular PLK1 assay in K562 cells overexpressing CDC25C; format: cell-based; design: endogenous in cells; host or cells: K562 (human chronic myelogenous leukemia) overexpressing CDC25C, nocodazole-arrested; conditions: nocodazole arrested, cdc25c p-Ser198 readout
Summary of the method: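 K562 cells overexpressing CDC25C were arrested with 333 nM nocodazole for 18 h at 37 °C, then exposed to compound at 8 points from 10 μM to 0.005 μM in duplicate for 120 min. After fixation and permeabilization, cells were stained for cdc25c pSer198 with a PE secondary and read by flow cytometry, 10,000 cells per well.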

PLK1 [2] = molecular target: T1, PLK1; experiment: In vitro PLK1 ELISA assay (biochemical); design: purchased Cell Signalling 7728
Summary of the method: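 Commercial PLK1 phosphorylates neutravidin-captured biotinylated CHK2 peptide for 45 min at room temperature in HEPES pH 7.2 with Mg2+/Mn2+/DTT, compounds at 10 μM to 0.005 μM. Phospho-CHK2(T68) antibody plus HRP secondary gives chemiluminescent read-out used for IC50.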

[3] = ELISA, CHK2-derived peptide substrate, read-out: PLK1 IC50 (μM) biochemical assay
[4] = read-out: IC50 in biochemical in vitro PLK1 ELISA assay (less than 10 μM)
[5] = read-out: IC50 in biochemical ELISA assay (less than 0.01 μM)

T1 sequence (P53350 whole entry): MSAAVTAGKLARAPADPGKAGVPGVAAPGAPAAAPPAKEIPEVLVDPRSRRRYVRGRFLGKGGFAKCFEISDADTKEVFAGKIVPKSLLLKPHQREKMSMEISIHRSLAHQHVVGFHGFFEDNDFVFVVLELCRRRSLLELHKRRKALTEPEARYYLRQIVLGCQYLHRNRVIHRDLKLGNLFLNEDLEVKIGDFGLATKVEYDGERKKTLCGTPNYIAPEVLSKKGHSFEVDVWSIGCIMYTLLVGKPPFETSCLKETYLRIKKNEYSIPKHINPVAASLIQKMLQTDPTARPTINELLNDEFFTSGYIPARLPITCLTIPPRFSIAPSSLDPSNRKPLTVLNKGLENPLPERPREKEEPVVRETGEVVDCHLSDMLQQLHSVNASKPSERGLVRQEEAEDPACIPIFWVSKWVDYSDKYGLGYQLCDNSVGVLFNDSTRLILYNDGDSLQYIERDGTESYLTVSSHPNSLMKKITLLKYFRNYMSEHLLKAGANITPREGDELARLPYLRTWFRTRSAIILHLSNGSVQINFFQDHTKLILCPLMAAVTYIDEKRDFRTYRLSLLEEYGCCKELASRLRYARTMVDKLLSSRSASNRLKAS

| SMILES | IC50 (PLK1 [1]) [µM] | IC50 (PLK1 [2]; [3]) [µM] | IC50 (PLK1 [2]; [4]) [µM] | IC50 (PLK1 [2]; [5]) [µM] |
| --- | --- | --- | --- | --- |
| CN1CC2CC1CN2c1cccc(Nc2ncc(F)c(Nc3ccc4c(n3)NC(=O)CO4)n2)c1 (stereo not drawn) [compound 41, 6-(5-fluoro-2-(3-(5-methyl-2,5-diaza-bicyclo[2.2.1]heptan-2-yl)phenylamino)pyrimidin-4-ylamino)-2H-pyrido[3,2-b][1,4]oxazin-3(4H)-one] | < 0.5 | < 0.5 | < 10 |  |
| CN1CC2CC1CN2c1cccc(Nc2ncc(F)c(Nc3ccc4c(n3)NCCO4)n2)c1 (stereo not drawn) [compound 42, N4-(3,4-dihydro-2H-pyrido[3,2-b][1,4]oxazin-6-yl)-5-fluoro-N2-(3-(5-methyl-2,5-diazabicyclo[2.2.1]heptan-2-yl)phenyl)pyrimidine-2,4-diamine] | < 0.5 | < 0.5 | < 10 | < 0.01 |
| CN1CCN(c2cc(Nc3ncc(F)c(Nc4ccc5c(n4)NC(=O)CO5)n3)cc(OC(C)(C)C)c2)CC1 [compound 47, 6-(2-(3-tert-butoxy-5-(4-methylpiperazin-1-yl)phenylamino)-5-fluoro-pyrimidin-4-ylamino)-2H-pyrido[3,2-b][1,4]oxazin-3(4H)-one] | < 0.5 | < 0.5 | < 10 |  |
| CN1CCN(c2cc(Nc3ncc(F)c(Nc4ccc5c(n4)NCCO5)n3)cc(C3CC3)c2)CC1 [compound 48, N2-(3-cyclopropyl-5-(4-methylpiperazin-1-yl)phenyl)-N4-(3,4-dihydro-2H-pyrido[3,2-b][1,4]oxazin-6-yl)-5-fluoropyrimidine-2,4-diamine] | < 0.5 | < 0.5 | < 10 | < 0.01 |
| CCOc1ccc(N2CCN(C)CC2)cc1Nc1ncc(F)c(Nc2ccc3c(n2)NC(=O)CO3)n1 [compound 49, 6-(2-(2-ethoxy-5-(4-methylpiperazin-1-yl)phenylamino)-5-fluoro-pyrimidin-4-ylamino)-2H-pyrido[3,2-b][1,4]oxazin-3(4H)-one] | < 0.5 | < 0.5 | < 10 | < 0.01 |
| Cc1cnc(Nc2cccc(N3CCN(C)CC3)c2)nc1Nc1ccc2c(n1)NC(=O)CO2 [compound 51, 6-(5-methyl-2-(3-(4-methylpiperazin-1-yl)phenylamino)pyrimidin-4-ylamino)-2H-pyrido[3,2-b][1,4]oxazin-3(4H)-one] | 0.5 to 5 | < 0.5 | < 10 | < 0.01 |
| CN1CCN(c2cccc(Nc3ncc(F)c(N(CC4CC4)c4ccc5c(n4)NCCO5)n3)c2)CC1 [compound 53, N4-(cyclopropylmethyl)-N4-(3,4-dihydro-2H-pyrido[3,2-b][1,4]oxazin-6-yl)-5-fluoro-N2-(3-(4-methylpiperazin-1-yl)phenyl)pyrimidine-2,4-diamine] | ≥ 10 | 0.5 to 5 | < 10 |  |
| CN1CCN(c2cccc(Nc3ncc(F)c(N(c4ccc5c(n4)NCCO5)C4CCCC4)n3)c2)CC1 [compound 54, N4-cyclopentyl-N4-(3,4-dihydro-2H-pyrido[3,2-b][1,4]oxazin-6-yl)-5-fluoro-N2-(3-(4-methylpiperazin-1-yl)phenyl)pyrimidine-2,4-diamine] | ≥ 10 | 5 to 10 | < 10 |  |
| CN1CCN(c2cccc(Nc3ncc(C(F)(F)F)c(Nc4ccc5c(n4)NCCO5)n3)c2)CC1 [compound 55, N4-(3,4-dihydro-2H-pyrido[3,2-b][1,4]oxazin-6-yl)-N2-(3-(4-methyl-piperazin-1-yl)phenyl)-5-(trifluoro-methyl)pyrimidine-2,4-diamine] | < 0.5 | < 0.5 | < 10 | < 0.01 |
| COc1cnc(Nc2cccc(N3CCN(C)CC3)c2)nc1Nc1ccc2c(n1)NC(=O)CO2 [compound 56, 6-(5-methoxy-2-(3-(4-methylpiperazin-1-yl)phenylamino)pyrimidin-4-ylamino)-2H-pyrido[3,2-b][1,4]oxazin-3(4H)-one] | ≥ 10 | < 0.5 | < 10 |  |
| Cc1cc(Nc2ncc(C)c(Nc3ccc4c(n3)N(C)C(=O)CO4)n2)ccc1N1CCN(C)CC1 [compound 95, 4-methyl-6-(5-methyl-2-(3-methyl-4-(4-methylpiperazin-1-yl)phenylamino)pyrimidin-4-ylamino)-2H-pyrido[3,2-b][1,4]oxazin-3(4H)-one] | ≥ 10 | 0.5 to 5 | < 10 |  |

Continued, values first:

| IC50 (PLK1 [1]) [µM] | IC50 (PLK1 [2]; [3]) [µM] | IC50 (PLK1 [2]; [4]) [µM] | IC50 (PLK1 [2]; [5]) [µM] | SMILES |
| --- | --- | --- | --- | --- |
| 0.5 to 5 | < 0.5 | < 10 |  | CCCN1C(=O)COc2ccc(Nc3nc(Nc4ccc(N5CC6CC5CN6C(C)=O)c(C)c4)ncc3C)nc21 (stereo not drawn) [compound 38, 6-(2-(4-(5-acetyl-2,5-diazabicyclo[2.2.1]heptan-2-yl)-3-methylphenyl-amino)-5-methyl-pyrimidin-4-ylamino)-4-propyl-2H-pyrido[3,2-b][1,4]oxazin-3(4H)-one] |
| 0.5 to 5 | 0.5 to 5 | < 10 |  | CCCN1CCOc2ccc(Nc3nc(Nc4ccc(N5CC6CC5CN6C(C)=O)c(C)c4)ncc3C)nc21 (stereo not drawn) [compound 39, 1-(5-(2-methyl-4-(5-methyl-4-(4-propyl-3,4-dihydro-2H-pyrido[3,2-b][1,4]oxazin-6-ylamino)pyrimidin-2-ylamino)phenyl)-2,5-diazabicyclo[2.2.1]heptan-2-yl)ethanone] |
| < 0.5 | < 0.5 | < 10 |  | CC(C)c1ccc(N2CCN(C)CC2)cc1Nc1ncc(F)c(Nc2ccc3c(n2)NC(=O)CO3)n1 [compound 43, 6-(5-fluoro-2-(2-isopropyl-5-(4-methylpiperazin-1-yl)phenylamino)pyrimidin-4-ylamnino)-2H-pyrido[3,2-b][1,4]oxazin-3(4H)-one] |
| ≥ 10 | < 0.5 | < 10 |  | CC(C)c1cc(Nc2ncc(F)c(Nc3ccc4c(n3)NC(=O)CO4)n2)cc(N2CCN(C)CC2)c1 [compound 44, 6-(5-fluoro-2-(3-isopropyl-5-(4-methylpiperazin-1-yl)phenylamino)pyrimidin-4-ylamino)-2H-pyrido[3,2-b][1,4]oxazin-3(4H)-one] |
| < 0.5 | < 0.5 | < 10 |  | CCOc1ccc(N2CCN(C)CC2)cc1Nc1ncc(F)c(Nc2ccc3c(n2)NCCO3)n1 [compound 45, N4-(3,4-dihydro-2H-pyrido[3,2-b][1,4]oxazin-6-yl)-N2-(2-ethoxy-5-(4-methylpiperazin-1-yl)phenyl)-5-fluoro-pyrimidine-2,4-diamine] |
| 0.5 to 5 | < 0.5 | < 10 |  | CC(C)c1cc(Nc2ncc(F)c(Nc3ccc4c(n3)NCCO4)n2)cc(N2CCN(C)CC2)c1 [compound 46, N4-(3,4-dihydro-2H-pyrido[3,2-b][1,4]oxazin-6-yl)-5-fluoro-N2-(3-isopropyl-5-(4-methylpiperazin-1-yl)phenyl)pyrimidine-2,4-diamine] |
| < 0.5 | < 0.5 | < 10 | < 0.01 | CN1CCN(c2cc(Nc3ncc(F)c(Nc4ccc5c(n4)NC(=O)CO5)n3)cc(C3CC3)c2)CC1 [compound 50, 6-(2-(3-cyclopropyl-5-(4-methylpiperazin-1-yl)phenylamino)-5-fluoro-pyrimidin-4-ylamino)-2H-pyrido[3,2-b][1,4]oxazin-3(4H)-one] |
| 0.5 to 5 | < 0.5 | < 10 |  | COc1cnc(Nc2cccc(N3CCN(C)CC3)c2)nc1Nc1ccc2c(n1)NCCO2 [compound 52, N4-(3,4-dihydro-2H-pyrido[3,2-b][1,4]oxazin-6-yl)-5-methoxy-N2-(3-(4-methylpiperazin-1-yl)phenyl)pyrimidine-2,4-diamine] |
